Experimental data as given in ChEMBL document CHEMBL1201862, “PubChem BioAssay data set” (2004).
The source made the active and inactive calls.

Assays:
[1] = molecular target: Delta-type opioid receptor (Homo sapiens, UniProt P41143); experiment: Counterscreen for agonists of heterodimerization of the mu 1 (OPRM1) and delta 1 (OPRD1) opioid receptors: Luminescence-based cell-based high throughput dose response assay to identify agonists of OPRD1 homodimerization. [Related pubchem assays (depositor defined):AID504326, AID504355, AID504692, AID504904, AID504905]; type: functional
[2] = molecular target: 5-hydroxytryptamine receptor 5A (Homo sapiens, UniProt P47898); experiment: Counterscreen for agonists of OPRM1-OPRD1 heterodimerization: luminescence-based cell-based high throughput dose response assay to identify agonists of 5-hydroxytryptamine (serotonin) 5A receptor (HTR5A). [Related pubchem assays (depositor defined):AID504326, AID504355, AID504692, AID504904, AID504905]; type: functional
[3] = molecular target: Mu-type opioid receptor (Homo sapiens, UniProt P35372); experiment: Counterscreen for agonists of heterodimerization of the mu 1 (OPRM1) and delta 1 (OPRD1) opioid receptors: Luminescence-based cell-based high throughput dose response assay to identify agonists of OPRM1 homodimerization.; type: functional;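 further: U2OS cells expressing OPRM1 and beta-arrestin as split beta-galactosidase partners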
[4] = molecular target: T1, Short transient receptor potential channel 4 (Mus musculus, UniProt Q9QUQ5); experiment: mouse TRPC4 channel inhibitors, dose response, cell-based, HEK293 TRPC4/mu-opioid, Fluo-4 calcium (AID 434942); type: functional;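 further: potency of inhibitors blocking the TRPC4 calcium response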
T1 sequence (Q9QUQ5 whole entry): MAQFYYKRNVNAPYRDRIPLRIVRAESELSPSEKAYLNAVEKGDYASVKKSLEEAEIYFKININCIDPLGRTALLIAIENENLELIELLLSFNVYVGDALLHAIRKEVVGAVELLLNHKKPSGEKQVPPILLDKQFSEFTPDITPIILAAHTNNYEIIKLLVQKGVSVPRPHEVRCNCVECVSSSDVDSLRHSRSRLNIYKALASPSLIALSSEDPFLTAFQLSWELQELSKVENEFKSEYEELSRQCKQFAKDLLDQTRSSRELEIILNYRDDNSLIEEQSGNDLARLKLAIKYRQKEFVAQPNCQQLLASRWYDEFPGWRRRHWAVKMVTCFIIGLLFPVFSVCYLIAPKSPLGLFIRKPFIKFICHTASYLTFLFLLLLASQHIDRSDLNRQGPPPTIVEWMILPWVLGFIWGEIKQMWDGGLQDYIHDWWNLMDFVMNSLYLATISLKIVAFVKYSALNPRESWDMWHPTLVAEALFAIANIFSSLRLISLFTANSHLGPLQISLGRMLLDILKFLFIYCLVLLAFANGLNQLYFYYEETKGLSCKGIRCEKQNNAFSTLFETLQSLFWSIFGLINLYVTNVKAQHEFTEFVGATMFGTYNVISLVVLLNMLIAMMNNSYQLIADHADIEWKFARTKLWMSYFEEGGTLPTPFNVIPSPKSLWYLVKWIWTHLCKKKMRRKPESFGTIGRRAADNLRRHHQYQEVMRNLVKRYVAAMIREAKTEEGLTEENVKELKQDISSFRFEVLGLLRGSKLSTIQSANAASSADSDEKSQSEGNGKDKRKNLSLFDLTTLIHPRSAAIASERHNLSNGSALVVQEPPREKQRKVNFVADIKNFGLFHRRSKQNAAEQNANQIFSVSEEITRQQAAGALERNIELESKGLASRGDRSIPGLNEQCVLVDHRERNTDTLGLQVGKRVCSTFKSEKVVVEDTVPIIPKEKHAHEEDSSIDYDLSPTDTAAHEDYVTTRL

[5] = molecular target: Cytochrome P450 2D6 (Homo sapiens, UniProt P10635)
[6] = molecular target: Cytochrome P450 2C19 (Homo sapiens, UniProt P33261); experiment: Cytochrome panel assay with activity outcomes. Panel member name: p450-cyp2c19 Compounds with AC50 equal or less than 10 uM are considered active; type: functional; details: read-out: AC50
[7] = molecular target: Cytochrome P450 2C9 (Homo sapiens, UniProt P11712)
[8] = molecular target: T1, Short transient receptor potential channel 4; experiment: mouse TRPC4 channel activators, dose response, cell-based, HEK293 TRPC4/mu-opioid, Fluo-4 calcium (AID 434937); type: functional
[9] = molecular target: T2, Microphthalmia-associated transcription factor (Homo sapiens, UniProt O75030); experiment: TRPM1 promoter luciferase signal decrease, dose response, MITF inhibitor project, cell-based, SK-MEL-5, cherry-picked, set 3 (AID 493073); type: functional
T2 sequence (O75030 whole entry): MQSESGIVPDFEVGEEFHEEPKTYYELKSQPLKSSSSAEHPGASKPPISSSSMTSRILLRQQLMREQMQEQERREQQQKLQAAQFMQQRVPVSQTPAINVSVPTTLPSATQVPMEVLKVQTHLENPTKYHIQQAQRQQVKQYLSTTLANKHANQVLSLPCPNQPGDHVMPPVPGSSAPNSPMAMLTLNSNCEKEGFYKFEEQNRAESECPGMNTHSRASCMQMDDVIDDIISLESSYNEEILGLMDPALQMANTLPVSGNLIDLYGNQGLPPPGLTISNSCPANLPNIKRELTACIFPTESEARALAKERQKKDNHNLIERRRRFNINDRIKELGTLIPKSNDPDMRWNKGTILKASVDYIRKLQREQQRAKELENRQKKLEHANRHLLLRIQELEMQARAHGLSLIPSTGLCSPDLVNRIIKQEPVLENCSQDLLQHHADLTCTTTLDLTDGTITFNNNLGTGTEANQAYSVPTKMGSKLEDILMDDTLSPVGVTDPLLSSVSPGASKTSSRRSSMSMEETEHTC

[10] = A Cell Based Secondary Assay To Explore Cytotoxicity of Compounds that Sensitize Mycobacterium Tuberculosis to Beta-Lactam Antibiotics.; type: functional
[11] = system: A-375; experiment: MITF: Counter assay: A375 proliferation Measured in Cell-Based System Using Plate Reader - 2084-03_Inhibitor_Dose_DryPowder_Activity. [Related pubchem assays (depositor defined):AID488944]; type: functional; details: Homo sapiens
[12] = system: Escherichia coli; experiment: microbe, parasite or virus in culture
[13] = system: Escherichia coli; experiment: microbe, parasite or virus in culture; remark: listed apart in the source
[14] = cytotoxicity toward DRD oncogenic fibroblasts, dose response, cell-based, non-viral oncogenic, luminescence (AID 1934); type: functional; details: Homo sapiens
[15] = system: BJ; experiment: cells; type: functional, cell-based; details: Homo sapiens
[16] = (§1) Counterscreen for antagonists of the orexin 1 receptor (OX1R; HCRTR1): Fluorescence-based cell-based high throughput dose response assay to identify antagonists of the parental CHO cell line. [Related pubchem assays (depositor defined):AID434989, AID435008, AID463079, AID485270, AID492963, AID492964, AID492965, AID493232, AID504699, AID504701]; type: functional
[17] = system: Jurkat; experiment: antigen receptor-induced NF-kB inhibitors, dose response, Jurkat, luciferase reporter, luminescence, B- and T-cell (AID 489004); type: functional, cell-based; details: Homo sapiens;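 further: NF-kB luciferase reporter Jurkat cells stimulated with PMA plus ionomycin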
[18] = system: BJ; experiment: cytotoxicity toward BJ-TERT-LT-ST fibroblasts, dose response, cell-based, RAS-independent, luminescence (AID 1935); type: functional; details: Homo sapiens;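 further: BJ fibroblasts immortalized with TERT plus LT and ST oncogenes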
[19] = molecular target: T3, Orexin receptor type 2 (Homo sapiens, UniProt O43614); experiment: Counterscreen assay for antagonists of the orexin 1 receptor (OX1R; HCRTR1): Homogeneous Time Resolved Fluorescence (HTRF)-based cell-based dose response assay for antagonists of the orexin 2 receptor (OX2R; HCRTR2), run by assay provider.; type: functional
T3 sequence (O43614 whole entry): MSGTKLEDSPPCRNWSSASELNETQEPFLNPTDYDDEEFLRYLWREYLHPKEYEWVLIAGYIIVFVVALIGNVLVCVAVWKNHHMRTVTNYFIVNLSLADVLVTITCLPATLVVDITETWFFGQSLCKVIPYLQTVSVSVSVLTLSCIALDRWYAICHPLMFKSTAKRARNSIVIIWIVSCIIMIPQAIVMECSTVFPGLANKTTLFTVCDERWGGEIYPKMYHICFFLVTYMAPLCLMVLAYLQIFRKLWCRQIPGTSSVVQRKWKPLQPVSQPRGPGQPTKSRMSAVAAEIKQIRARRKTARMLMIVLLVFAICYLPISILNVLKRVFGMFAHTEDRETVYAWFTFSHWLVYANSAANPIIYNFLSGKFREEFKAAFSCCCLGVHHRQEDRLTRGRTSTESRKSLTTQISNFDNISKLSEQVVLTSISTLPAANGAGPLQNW

[20] = molecular target: T4, Orexin/Hypocretin receptor type 1 (Homo sapiens, UniProt O43613); experiment: Homogeneous Time Resolved Fluorescence (HTRF)-based cell-based high throughput dose response assay for antagonists of the orexin 1 receptor (OX1R; HCRTR1). [Related pubchem assays (depositor defined):AID434989, AID435008, AID463079, AID485270, AID492963, AID492964, AID492965, AID493232, AID504717, AID504718]; type: functional
T4 sequence (O43613 whole entry): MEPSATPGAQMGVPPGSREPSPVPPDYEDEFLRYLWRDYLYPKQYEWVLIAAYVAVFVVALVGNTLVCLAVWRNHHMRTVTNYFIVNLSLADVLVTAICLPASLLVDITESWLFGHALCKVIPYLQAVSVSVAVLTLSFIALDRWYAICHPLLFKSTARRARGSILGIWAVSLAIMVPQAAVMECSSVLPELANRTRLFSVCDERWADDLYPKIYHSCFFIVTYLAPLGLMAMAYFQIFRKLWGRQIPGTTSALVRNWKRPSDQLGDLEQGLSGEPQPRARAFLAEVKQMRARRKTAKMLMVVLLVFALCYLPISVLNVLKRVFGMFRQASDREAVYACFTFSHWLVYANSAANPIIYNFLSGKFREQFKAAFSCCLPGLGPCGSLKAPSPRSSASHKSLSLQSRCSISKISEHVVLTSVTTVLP

[21] = molecular target: T4, Orexin/Hypocretin receptor type 1; experiment: Fluorescence-based cell-based high throughput dose response assay for antagonists of the orexin 1 receptor (OX1R; HCRTR1). [Related pubchem assays (depositor defined):AID434989, AID435008, AID463079, AID485270, AID492963, AID492964, AID492965, AID493232, AID504717, AID504718]; type: functional
[22] = cytotoxicity in HEK-293T NF-kB-Luc cells, dose response, cytotoxicity control for B/T-cell NF-kB inhibitor project, cell-based, uHTS hits (AID 489019); type: functional;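 further: IC50 reflects cytotoxicity as loss of cell viability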
[23] = system: BJ; experiment: cytotoxicity toward BJ-TERT fibroblasts, dose response, cell-based, RAS-independent, luminescence (AID 1933); type: functional; details: Homo sapiens
[24] = molecular target: T3, Orexin receptor type 2; experiment: Counterscreen assay for antagonists of the orexin 1 receptor (OX1R; HCRTR1): Fluorescence-based cell-based dose response assay for antagonists of the orexin 2 receptor (OX2R; HCRTR2), run by assay provider.; type: functional
[25] = system: CHO-K1; experiment: as §1, with “Homogeneous time resolved fluorescence (HTRF)-based” for “Fluorescence-based”, “cell-based” for “cell-based high throughput”, “CHO-K1” for “CHO”; type: functional; details: Cricetulus griseus;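 further: potency for inhibition of ATP-stimulated IP1 production as antagonists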
[26] = molecular target: Peroxisome proliferator-activated receptor gamma/Nuclear receptor coactivator 1 (Homo sapiens, UniProt P37231); experiment: TR-FRET dose response biochemical High Throughput Screening assay for agonists of the steroid receptor coactivator 1 (SRC-1) recruitment by the peroxisome proliferator-activated receptor gamma (PPAR gamma): non-selective agonists. [Related pubchem assays (depositor defined):AID1300, AID1808, AID504735, AID631]; type: protein assay
[27] = molecular target: Peroxisome proliferator-activated receptor gamma/Nuclear receptor coactivator 2 (Homo sapiens, UniProt P37231); experiment: (§2) TR-FRET dose response biochemical High Throughput Screening assay for agonists of the steroid receptor coactivator 2 (SRC-2) recruitment by the peroxisome proliferator-activated receptor gamma (PPAR gamma): non-selective agonists. [Related pubchem assays: 1297, 1032 ]; type: functional
[28] = system: Vero; experiment: cells; type: functional, cell-based; details: Chlorocebus sabaeus
[29] = molecular target: Peroxisome proliferator-activated receptor gamma/Nuclear receptor coactivator 3 (Homo sapiens, UniProt P37231); experiment: as §2, with “3 (SRC-3)” for “2 (SRC-2)”, “1301 (Confirmation screen.), 1048 (Primary screen.)]” for “1297, 1032 ]”; type: functional

Sequence of Cytochrome P450 2D6 (P10635 whole entry): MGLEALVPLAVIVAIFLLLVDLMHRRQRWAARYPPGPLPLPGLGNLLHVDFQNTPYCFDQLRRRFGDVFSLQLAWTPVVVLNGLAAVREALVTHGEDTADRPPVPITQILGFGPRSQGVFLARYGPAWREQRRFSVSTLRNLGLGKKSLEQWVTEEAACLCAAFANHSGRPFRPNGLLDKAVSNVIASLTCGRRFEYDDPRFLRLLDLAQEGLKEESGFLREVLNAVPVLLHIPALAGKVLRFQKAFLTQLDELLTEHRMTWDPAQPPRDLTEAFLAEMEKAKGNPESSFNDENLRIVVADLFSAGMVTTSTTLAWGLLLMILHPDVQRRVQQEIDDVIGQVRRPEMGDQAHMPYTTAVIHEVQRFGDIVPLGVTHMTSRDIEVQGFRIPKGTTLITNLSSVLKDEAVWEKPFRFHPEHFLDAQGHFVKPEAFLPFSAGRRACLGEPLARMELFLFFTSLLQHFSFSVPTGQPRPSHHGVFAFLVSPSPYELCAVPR
Sequence of Cytochrome P450 2C19 (P33261 whole entry): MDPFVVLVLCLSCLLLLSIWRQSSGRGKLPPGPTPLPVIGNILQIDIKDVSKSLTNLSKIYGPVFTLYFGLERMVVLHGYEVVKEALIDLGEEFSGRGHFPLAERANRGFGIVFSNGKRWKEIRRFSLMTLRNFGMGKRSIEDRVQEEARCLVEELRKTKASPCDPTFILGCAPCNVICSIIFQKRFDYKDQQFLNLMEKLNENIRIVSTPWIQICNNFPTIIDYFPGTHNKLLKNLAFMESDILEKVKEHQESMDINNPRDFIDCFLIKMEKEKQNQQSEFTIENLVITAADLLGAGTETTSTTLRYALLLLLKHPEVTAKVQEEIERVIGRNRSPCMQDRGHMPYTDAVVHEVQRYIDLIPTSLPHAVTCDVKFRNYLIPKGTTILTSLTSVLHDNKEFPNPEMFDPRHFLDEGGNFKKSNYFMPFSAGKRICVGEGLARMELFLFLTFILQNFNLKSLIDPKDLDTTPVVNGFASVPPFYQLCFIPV
Sequence of 5-hydroxytryptamine receptor 5A (P47898 whole entry): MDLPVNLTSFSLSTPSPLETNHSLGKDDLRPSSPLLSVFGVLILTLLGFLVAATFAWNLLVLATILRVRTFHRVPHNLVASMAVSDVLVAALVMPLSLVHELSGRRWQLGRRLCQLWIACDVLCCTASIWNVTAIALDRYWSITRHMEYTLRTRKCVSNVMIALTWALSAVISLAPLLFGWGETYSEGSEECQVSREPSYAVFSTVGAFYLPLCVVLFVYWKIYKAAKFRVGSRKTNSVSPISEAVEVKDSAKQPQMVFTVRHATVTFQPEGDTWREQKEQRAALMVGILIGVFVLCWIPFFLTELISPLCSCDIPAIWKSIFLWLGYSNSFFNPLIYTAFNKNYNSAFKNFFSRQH
Sequence of Peroxisome proliferator-activated receptor gamma/Nuclear receptor coactivator 2 (P37231 whole entry): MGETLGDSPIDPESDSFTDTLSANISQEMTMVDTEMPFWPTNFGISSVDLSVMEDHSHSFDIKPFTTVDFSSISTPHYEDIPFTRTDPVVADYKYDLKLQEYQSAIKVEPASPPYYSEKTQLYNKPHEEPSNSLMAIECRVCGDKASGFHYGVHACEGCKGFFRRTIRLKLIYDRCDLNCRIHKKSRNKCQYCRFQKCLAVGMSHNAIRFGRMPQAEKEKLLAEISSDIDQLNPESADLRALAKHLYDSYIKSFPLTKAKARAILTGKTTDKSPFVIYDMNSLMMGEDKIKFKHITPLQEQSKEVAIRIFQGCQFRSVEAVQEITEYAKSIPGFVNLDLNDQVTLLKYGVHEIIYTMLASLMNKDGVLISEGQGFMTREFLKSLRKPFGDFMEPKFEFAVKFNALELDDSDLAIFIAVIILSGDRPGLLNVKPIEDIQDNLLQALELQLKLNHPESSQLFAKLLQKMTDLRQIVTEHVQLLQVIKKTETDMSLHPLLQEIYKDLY
Sequence of Peroxisome proliferator-activated receptor gamma/Nuclear receptor coactivator 2 (Q15596 whole entry, further chain): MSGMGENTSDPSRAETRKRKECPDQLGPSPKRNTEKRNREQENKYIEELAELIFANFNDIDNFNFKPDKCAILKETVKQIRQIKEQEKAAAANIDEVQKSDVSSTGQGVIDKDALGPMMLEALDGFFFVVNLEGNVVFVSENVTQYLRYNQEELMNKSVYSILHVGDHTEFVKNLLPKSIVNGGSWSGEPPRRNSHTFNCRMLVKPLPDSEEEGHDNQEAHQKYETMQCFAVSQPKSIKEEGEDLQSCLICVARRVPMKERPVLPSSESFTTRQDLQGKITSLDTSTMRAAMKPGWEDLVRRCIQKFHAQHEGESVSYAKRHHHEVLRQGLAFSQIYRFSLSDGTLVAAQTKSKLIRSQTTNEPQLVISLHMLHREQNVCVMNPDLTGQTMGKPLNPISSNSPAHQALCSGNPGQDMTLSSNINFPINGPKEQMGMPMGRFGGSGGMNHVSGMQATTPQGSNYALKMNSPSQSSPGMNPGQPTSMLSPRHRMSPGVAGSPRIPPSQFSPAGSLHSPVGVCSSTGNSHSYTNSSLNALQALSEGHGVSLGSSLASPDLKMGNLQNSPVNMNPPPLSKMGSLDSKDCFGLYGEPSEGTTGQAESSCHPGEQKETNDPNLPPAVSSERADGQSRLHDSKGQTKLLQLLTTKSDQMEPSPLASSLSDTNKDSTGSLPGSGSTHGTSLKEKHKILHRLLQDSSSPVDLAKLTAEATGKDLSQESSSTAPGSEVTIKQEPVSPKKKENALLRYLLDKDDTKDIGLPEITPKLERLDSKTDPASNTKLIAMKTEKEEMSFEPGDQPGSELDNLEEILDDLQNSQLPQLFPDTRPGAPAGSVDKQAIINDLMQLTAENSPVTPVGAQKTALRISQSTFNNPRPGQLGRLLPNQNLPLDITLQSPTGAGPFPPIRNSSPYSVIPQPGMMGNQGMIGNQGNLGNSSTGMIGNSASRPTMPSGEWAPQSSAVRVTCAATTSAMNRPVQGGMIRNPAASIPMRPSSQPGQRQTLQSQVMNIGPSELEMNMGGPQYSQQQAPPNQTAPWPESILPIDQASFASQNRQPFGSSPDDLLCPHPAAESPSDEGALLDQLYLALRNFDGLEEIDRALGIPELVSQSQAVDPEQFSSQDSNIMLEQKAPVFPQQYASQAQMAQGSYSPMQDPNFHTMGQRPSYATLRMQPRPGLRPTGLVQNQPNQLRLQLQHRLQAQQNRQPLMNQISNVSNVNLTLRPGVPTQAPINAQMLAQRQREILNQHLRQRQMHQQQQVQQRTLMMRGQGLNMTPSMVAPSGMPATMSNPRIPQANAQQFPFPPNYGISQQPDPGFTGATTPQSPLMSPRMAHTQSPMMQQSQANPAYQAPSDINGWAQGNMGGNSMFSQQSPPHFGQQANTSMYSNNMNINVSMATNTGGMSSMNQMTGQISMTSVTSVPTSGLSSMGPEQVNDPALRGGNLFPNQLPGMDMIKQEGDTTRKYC
Sequence of Mu-type opioid receptor (P35372 whole entry): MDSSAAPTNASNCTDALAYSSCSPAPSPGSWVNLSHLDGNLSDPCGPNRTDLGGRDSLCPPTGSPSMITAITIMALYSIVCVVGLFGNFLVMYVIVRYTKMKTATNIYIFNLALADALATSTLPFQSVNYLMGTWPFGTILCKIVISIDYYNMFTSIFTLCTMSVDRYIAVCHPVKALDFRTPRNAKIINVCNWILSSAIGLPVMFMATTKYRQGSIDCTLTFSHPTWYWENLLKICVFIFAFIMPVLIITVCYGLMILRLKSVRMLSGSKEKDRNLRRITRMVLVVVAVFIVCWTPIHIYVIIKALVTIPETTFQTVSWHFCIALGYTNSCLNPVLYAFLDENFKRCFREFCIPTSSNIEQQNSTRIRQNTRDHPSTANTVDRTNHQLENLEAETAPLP
Sequence of Cytochrome P450 2C9 (P11712 whole entry): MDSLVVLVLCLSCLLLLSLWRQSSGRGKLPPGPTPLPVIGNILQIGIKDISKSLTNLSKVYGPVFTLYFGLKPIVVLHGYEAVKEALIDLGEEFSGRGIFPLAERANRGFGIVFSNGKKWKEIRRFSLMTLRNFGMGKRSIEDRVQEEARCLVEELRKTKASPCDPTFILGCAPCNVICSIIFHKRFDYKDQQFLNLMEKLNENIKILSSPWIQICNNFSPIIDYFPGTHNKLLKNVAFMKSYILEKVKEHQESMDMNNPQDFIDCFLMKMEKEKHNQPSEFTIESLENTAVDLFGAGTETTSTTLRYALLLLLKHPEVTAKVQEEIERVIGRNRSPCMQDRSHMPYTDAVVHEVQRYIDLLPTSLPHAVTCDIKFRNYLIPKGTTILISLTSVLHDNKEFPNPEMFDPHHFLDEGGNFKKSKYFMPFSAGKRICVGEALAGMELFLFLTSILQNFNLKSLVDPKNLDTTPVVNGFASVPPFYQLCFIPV
Sequence of Delta-type opioid receptor (P41143 whole entry): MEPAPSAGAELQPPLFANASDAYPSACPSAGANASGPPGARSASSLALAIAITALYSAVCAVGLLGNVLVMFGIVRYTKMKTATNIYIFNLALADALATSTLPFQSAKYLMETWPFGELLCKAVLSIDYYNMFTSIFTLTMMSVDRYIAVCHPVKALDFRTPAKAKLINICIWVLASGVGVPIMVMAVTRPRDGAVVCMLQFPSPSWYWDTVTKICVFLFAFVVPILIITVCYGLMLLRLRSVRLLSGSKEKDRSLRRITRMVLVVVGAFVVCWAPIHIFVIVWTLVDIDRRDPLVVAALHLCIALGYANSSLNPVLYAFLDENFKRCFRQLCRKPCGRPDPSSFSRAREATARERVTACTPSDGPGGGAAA

COc1ccc2c(c1)C=C(CN1CCC(CO)(CCc3ccccc3)CC1)CO2
EC50 [1]: 67.7 µM (inactive) | EC50 [2]: > 92.5 µM (inactive) | EC50 [3]: 85.9 µM (inactive) | EC50 [4]: 2.11 µM (active)

O=C(Nc1nc2ccc(F)cc2s1)C1CCCO1 (stereo not given)
AC50 [5]: inconclusive | AC50 [6]: 25.1 µM (inconclusive) | AC50 [7]: 39.8 µM (inconclusive)

CC(C)C1CC(CCNCc2ccc(N(C)C)cc2)(c2ccccc2)CCO1 (stereo not given)
EC50 [8]: 6.68 µM (active) | AC50 [9]: 11.1 µM (active) | CC50 [10]: 33.3 µM (active) | AC50 [11]: 20.7 µM (active)

O=C(NCc1ccccc1)c1ccc(CS(=O)(=O)c2ccccc2)o1
AC50 [12]: 28.6 µM (active)

CC(C)(C)OC(=O)N1CCCC(C(=O)Nc2cccc(C(=O)NCCc3ccccc3)c2)C1 (stereo not given)
AC50 [13]: 322 µM (active) | AC50 [12]: 21.1 µM (active)

Cc1nn(-c2ccccc2)c(C)c1/C=N/NC(=O)c1cc(-c2cccs2)[nH]n1
EC50 [14]: 0.644 µM (inconclusive) | EC50 [15]: 0.79 µM (active) | IC50 [16]: > 49.7 µM (inactive) | IC50 [17]: 10.3 µM (active) | EC50 [18]: 0.601 µM (inconclusive) | IC50 [19]: > 50 µM (inactive) | IC50 [20]: 2.99 µM (active) | IC50 [21]: 3.99 µM (active) | IC50 [22]: 9.45 µM (active) | EC50 [23]: 0.66 µM (inconclusive) | IC50 [24]: 37 µM (inactive) | IC50 [25]: > 66.2 µM (inactive)

Sc1nnc(-c2ccccn2)n1/N=C/c1ccc(-c2ccccc2Br)o1
EC50 [26]: 2.75 µM (active) | EC50 [27]: 2.83 µM (active) | IC50 [28]: 23.4 µM (active) | EC50 [29]: > 79.4 µM (not active)
